Assay results taken from PubChem BioAssay AID256 (DTP/NCI, 2004).
Values joined by “and” are separate entries in the source; they are usually repeats but may differ in a detail not shown here. Identical values can stand only once. Toxic doses and inconclusive results are not listed.

System: CD2F1 mice, L1210 leukemia ip, survival T/C
Assay: NCI In Vivo Anticancer Drug Screen. Data for tumor model L1210 Leukemia (intraperitoneal) in CD2F1 (CDF1) mice
Conditions: higher = longer survival
Summary of the method: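 Transplantable tumor in mice; compound-treated vs vehicle-treated groups. Read-out = treated/control ratio of the measured endpoint.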

[1] = endpoint: mean survival time, dose: 50.0 mg/kg/injection, schedule: Q01DX009 (ip), vehicle: saline
[2] = endpoint: mean survival time, dose: 100.0 mg/kg/injection, schedule: Q01DX009 (ip), vehicle: saline
[3] = endpoint: mean survival time, dose: 100.0 mg/kg/injection, schedule: Q04DX003 (ip), vehicle: saline
[4] = endpoint: mean survival time, dose: 100.0 mg/kg/injection, schedule: Q04DX003 (ip), vehicle: saline with Tween-80
[5] = endpoint: mean survival time, dose: 200.0 mg/kg/injection, schedule: Q04DX003 (ip), vehicle: saline with Tween-80
[6] = endpoint: mean survival time, dose: 400.0 mg/kg/injection, schedule: Q04DX003 (ip), vehicle: saline with Tween-80
[7] = endpoint: mean survival time, dose: 200.0 mg/kg/injection, schedule: Q04DX003 (ip), vehicle: saline
[8] = endpoint: mean survival time, dose: 400.0 mg/kg/injection, schedule: Q04DX003 (ip), vehicle: saline
[9] = endpoint: median survival time, dose: 25.0 mg/kg/injection, schedule: Q01DX009 (ip), vehicle: saline with Tween-80
[10] = endpoint: median survival time, dose: 50.0 mg/kg/injection, schedule: Q01DX009 (ip), vehicle: saline with Tween-80
[11] = endpoint: median survival time, dose: 100.0 mg/kg/injection, schedule: Q01DX009 (ip), vehicle: saline with Tween-80
[12] = endpoint: mean survival time, dose: 100.0 mg/kg/injection, schedule: Q01DX009 (ip), vehicle: saline with Tween-80

c1ccc([P+](Cc2ccc(C[P+](c3ccccc3)(c3ccccc3)c3ccccc3)cc2)(c2ccccc2)c2ccccc2)cc1
T/C (endpoint: mean survival time, dose: 0.07 mg/kg/injection, schedule: Q01DX009 (ip), vehicle: saline sonified): 94 % of control
T/C (endpoint: mean survival time, dose: 0.07 mg/kg/injection, schedule: Q04DX003 (ip), vehicle: saline with Tween-80): 97 % of control
T/C (endpoint: mean survival time, dose: 0.15 mg/kg/injection, schedule: Q01DX009 (ip), vehicle: saline sonified): 98 % of control
T/C (endpoint: mean survival time, dose: 0.15 mg/kg/injection, schedule: Q04DX003 (ip), vehicle: saline with Tween-80): 93 % of control
T/C (endpoint: mean survival time, dose: 0.3 mg/kg/injection, schedule: Q01DX009 (ip), vehicle: saline sonified): 93 % of control
T/C (endpoint: mean survival time, dose: 0.3 mg/kg/injection, schedule: Q04DX003 (ip), vehicle: saline with Tween-80): 93 % of control
T/C (endpoint: mean survival time, dose: 0.6 mg/kg/injection, schedule: Q01DX009 (ip), vehicle: saline sonified): 96 % of control
T/C (endpoint: mean survival time, dose: 0.6 mg/kg/injection, schedule: Q04DX003 (ip), vehicle: saline with Tween-80): 98 % of control

COc1ccc(Cl)cc1Cn1ccnc1
T/C (endpoint: mean survival time, dose: 50.0 mg/kg/injection, schedule: Q01DX001 (ip), vehicle: saline): 104 % of control
T/C [1]: 115 % of control and 102 % of control
T/C (endpoint: mean survival time, dose: 50.0 mg/kg/injection, schedule: Q04DX003 (ip), vehicle: saline): 107 % of control
T/C (endpoint: mean survival time, dose: 100.0 mg/kg/injection, schedule: Q01DX001 (ip), vehicle: saline): 107 % of control
T/C [2]: 118 % of control and 107 % of control
T/C (endpoint: mean survival time, dose: 100.0 mg/kg/injection, schedule: Q04DX002 (ip), vehicle: saline): 115 % of control and 100 % of control
T/C [3]: 115 % of control
T/C (endpoint: mean survival time, dose: 200.0 mg/kg/injection, schedule: Q04DX002 (ip), vehicle: saline): 117 % of control and 109 % of control

Cc1nc2c(N)nn(C)c2nc1C
T/C [4]: 95 % of control
T/C [5]: 101 % of control
T/C [6]: 101 % of control

CCOc1ccc2nc3cc(N)ccc3c(N)c2c1
T/C (endpoint: mean survival time, dose: 25.0 mg/kg/injection, schedule: Q01DX009 (ip), vehicle: saline): 101 % of control
T/C [1]: 113 % of control
T/C [2]: 122 % of control and 101 % of control
T/C [3]: 114 % of control
T/C [7]: 105 % of control
T/C [8]: 105 % of control

CCOC(=O)C1CC(O)CN1 (stereo unspecified)
T/C (endpoint: mean survival time, dose: 100.0 mg/kg/injection, schedule: Q01DX009 (ip), vehicle: saline sonified): 98 % of control
T/C (endpoint: mean survival time, dose: 200.0 mg/kg/injection, schedule: Q01DX009 (ip), vehicle: saline sonified): 95 % of control
T/C (endpoint: mean survival time, dose: 400.0 mg/kg/injection, schedule: Q01DX009 (ip), vehicle: saline sonified): 92 % of control

COc1ccc(C=NCCO)cc1OC
T/C (endpoint: median survival time, dose: 50.0 mg/kg/injection, schedule: Q04DX002 (ip), vehicle: saline with Tween-80): 111 % of control
T/C (endpoint: median survival time, dose: 100.0 mg/kg/injection, schedule: Q04DX002 (ip), vehicle: saline with Tween-80): 100 % of control
T/C (endpoint: median survival time, dose: 200.0 mg/kg/injection, schedule: Q04DX002 (ip), vehicle: saline with Tween-80): 100 % of control
T/C (endpoint: median survival time, dose: 400.0 mg/kg/injection, schedule: Q04DX002 (ip), vehicle: saline with Tween-80): 100 % of control

N#CCCc1ccccc1
T/C (endpoint: mean survival time, dose: 3.13 mg/kg/injection, schedule: Q01DX009 (ip), vehicle: saline with Tween-80): 97 % of control
T/C (endpoint: mean survival time, dose: 3.13 mg/kg/injection, schedule: Q04DX003 (ip), vehicle: saline): 92 % of control
T/C (endpoint: mean survival time, dose: 6.25 mg/kg/injection, schedule: Q01DX009 (ip), vehicle: saline with Tween-80): 94 % of control
T/C (endpoint: mean survival time, dose: 6.25 mg/kg/injection, schedule: Q04DX003 (ip), vehicle: saline): 89 % of control
T/C (endpoint: mean survival time, dose: 12.5 mg/kg/injection, schedule: Q01DX009 (ip), vehicle: saline with Tween-80): 94 % of control
T/C (endpoint: mean survival time, dose: 12.5 mg/kg/injection, schedule: Q04DX003 (ip), vehicle: saline with Tween-80): 106 % of control
T/C (endpoint: mean survival time, dose: 12.5 mg/kg/injection, schedule: Q04DX003 (ip), vehicle: saline): 92 % of control
T/C (endpoint: mean survival time, dose: 25.0 mg/kg/injection, schedule: Q04DX003 (ip), vehicle: saline with Tween-80): 123 % of control
T/C (endpoint: mean survival time, dose: 50.0 mg/kg/injection, schedule: Q04DX003 (ip), vehicle: saline with Tween-80): 92 % of control

CS(=O)(=O)CS(=O)(=O)OCCCl
T/C (endpoint: median survival time, dose: 6.25 mg/kg/injection, schedule: Q01DX009 (ip), vehicle: saline with Tween-80): 116 % of control and 121 % of control
T/C (endpoint: median survival time, dose: 12.5 mg/kg/injection, schedule: Q01DX009 (ip), vehicle: saline with Tween-80): 168 % of control
T/C [9]: 207 % of control and 228 % of control
T/C (endpoint: median survival time, dose: 25.0 mg/kg/injection, schedule: Q01DX009 (ip), vehicle: saline): 197 % of control
T/C [10]: 370 % of control and 722 % of control
T/C (endpoint: median survival time, dose: 50.0 mg/kg/injection, schedule: Q01DX009 (ip), vehicle: saline): 352 % of control
T/C [11]: 370 % of control
T/C (endpoint: median survival time, dose: 100.0 mg/kg/injection, schedule: Q01DX009 (ip), vehicle: saline): 352 % of control

C1=CC2C=CC12 (stereo unspecified)
T/C (endpoint: mean survival time, dose: 50.0 mg/kg/injection, schedule: Q01DX009 (ip), vehicle: saline with Tween-80): 105 % of control
T/C [12]: 108 % of control
T/C [4]: 95 % of control
T/C [5]: 104 % of control

CN1CCC(c2ccccc2)c2ccccc21 (stereo unspecified)
T/C (endpoint: mean survival time, dose: 50.0 mg/kg/injection, schedule: Q04DX003 (ip), vehicle: other): 97 % of control
T/C (endpoint: mean survival time, dose: 100.0 mg/kg/injection, schedule: Q04DX003 (ip), vehicle: other): 100 % of control
T/C (endpoint: mean survival time, dose: 200.0 mg/kg/injection, schedule: Q04DX003 (ip), vehicle: other): 100 % of control
T/C (endpoint: mean survival time, dose: 400.0 mg/kg/injection, schedule: Q04DX003 (ip), vehicle: other): 100 % of control

Cc1cc(OCC2=NCCN2)c(C)c(C)c1Cl
T/C (endpoint: mean survival time, dose: 6.25 mg/kg/injection, schedule: Q04DX002 (ip), vehicle: saline with Tween-80): 94 % of control
T/C (endpoint: mean survival time, dose: 12.5 mg/kg/injection, schedule: Q04DX002 (ip), vehicle: saline with Tween-80): 94 % of control
T/C (endpoint: mean survival time, dose: 25.0 mg/kg/injection, schedule: Q04DX002 (ip), vehicle: saline with Tween-80): 97 % of control

CCCC(N(C)C)P(=O)(O)O (stereo unspecified)
T/C [3]: 95 % of control
T/C [7]: 101 % of control
T/C [8]: 101 % of control

Nc1ccc(OC(=O)Oc2ccc(N)cc2)cc1
T/C (endpoint: mean survival time, dose: 18.75 mg/kg/injection, schedule: Q06HX068 (ip), vehicle: other): 87 % of control
T/C (endpoint: mean survival time, dose: 18.75 mg/kg/injection, schedule: Q#A X034 (ip), vehicle: other): 100 % of control
T/C (endpoint: mean survival time, dose: 37.5 mg/kg/injection, schedule: Q01DX017 (ip), vehicle: other): 106 % of control
T/C (endpoint: mean survival time, dose: 37.5 mg/kg/injection, schedule: Q#A X034 (ip), vehicle: other): 103 % of control
T/C (endpoint: mean survival time, dose: 75.0 mg/kg/injection, schedule: Q01DX001 (ip), vehicle: other): 100 % of control
T/C (endpoint: mean survival time, dose: 75.0 mg/kg/injection, schedule: Q01DX005 (ip), vehicle: other): 112 % of control
T/C (endpoint: mean survival time, dose: 150.0 mg/kg/injection, schedule: Q01DX001 (ip), vehicle: other): 102 % of control
T/C (endpoint: mean survival time, dose: 150.0 mg/kg/injection, schedule: Q01DX017 (ip), vehicle: other): 154 % of control
T/C (endpoint: mean survival time, dose: 150.0 mg/kg/injection, schedule: Q#A X034 (ip), vehicle: other): 155 % of control
T/C (endpoint: mean survival time, dose: 300.0 mg/kg/injection, schedule: Q01DX001 (ip), vehicle: other): 103 % of control

O=C(Nc1ccccc1F)c1ccccc1Cl
T/C [2]: 98 % of control
T/C [3]: 106 % of control
T/C (endpoint: mean survival time, dose: 200.0 mg/kg/injection, schedule: Q01DX009 (ip), vehicle: saline): 92 % of control
T/C [7]: 104 % of control
T/C (endpoint: mean survival time, dose: 400.0 mg/kg/injection, schedule: Q01DX009 (ip), vehicle: saline): 98 % of control
T/C [8]: 97 % of control

CCOC(=O)N1N(C(=O)c2ccccc2)C(=O)CC1(C)C
T/C (endpoint: mean survival time, dose: 100.0 mg/kg/injection, schedule: Q01DX001 (ip), vehicle: other): 95 % of control
T/C (endpoint: mean survival time, dose: 200.0 mg/kg/injection, schedule: Q01DX001 (ip), vehicle: other): 116 % of control
T/C (endpoint: mean survival time, dose: 400.0 mg/kg/injection, schedule: Q01DX001 (ip), vehicle: other): 98 % of control

COc1ccc(CCNC(=O)C(c2ccccc2)c2ccccc2)cc1OC
T/C [12]: 97 % of control
T/C [4]: 103 % of control
T/C (endpoint: mean survival time, dose: 200.0 mg/kg/injection, schedule: Q01DX009 (ip), vehicle: saline with Tween-80): 90 % of control
T/C [5]: 101 % of control
T/C (endpoint: mean survival time, dose: 400.0 mg/kg/injection, schedule: Q01DX009 (ip), vehicle: saline with Tween-80): 92 % of control
T/C [6]: 100 % of control

CC(=O)C[n+]1ccc(C)cc1Sc1ccccc1C
T/C [9]: 98 % of control
T/C [10]: 96 % of control
T/C [11]: 98 % of control
